Results from ChEMBL document CHEMBL1136400, “Substituted bridged phenyl piperidines: orally active growth hormone secretagogues” (Bioorg Med Chem Lett, 2003).

Species: Rattus norvegicus
Assay: Effective concentration for their ability to release growth hormone in the rat pituitary cell assay
Type: functional, organism-based, Pituitary gland cell
Conditions: Rattus norvegicus, Pituitary gland cell

Compound | EC50
CC(C)(N)C(=O)N[C@H](Cc1c[nH]c2ccccc12)C(=O)N1C2CCC1CC(c1ccccc1)C2 (mixture of isomers) | 62.8 nM
CCNC(=O)c1ccccc1C1CC2CCC(C1)N2C(=O)[C@@H](CCCc1ccccc1)NC(=O)C(C)(C)N (mixture of isomers) | 1.3 nM
Cc1ccccc1C1CC2CCC(C1)N2C(=O)[C@@H](CCCc1ccccc1)NC(=O)C(C)(C)N (mixture of isomers) | 78.4 nM
CC(C)(N)C(=O)N[C@H](CCCc1ccccc1)C(=O)N1C2CCC1CC(c1ccccc1)C2 (mixture of isomers) | 24 nM
Cc1ccccc1C1CC2CCC(C1)N2C(=O)[C@@H](Cc1c[nH]c2ccccc12)NC(=O)C(C)(C)N (mixture of isomers) | 33.2 nM
CC(C)(N)C(=O)N[C@H](COCc1ccccc1)C(=O)N1CCC2(CC1)CN(S(C)(=O)=O)c1ccccc12 [IBUTAMOREN] | 1 nM

Same assay, conditions: pituitary gland cell

Compound | EC50
CCOC(=O)c1ccccc1C1CC2CCC(C1)N2C(=O)[C@@H](CCCc1ccccc1)NC(=O)C(C)(C)N (mixture of isomers) | 90 nM
CCOC(=O)c1ccccc1C1CC2CCC(C1)N2C(=O)[C@@H](CCCc1ccccc1)NC(=O)C(C)(C)N (stereo in doubt; 26f) | 48 nM
CC(C)(N)C(=O)N[C@H](CCCc1ccccc1)C(=O)N1C2CCC1CC(c1ccccc1C(=O)O)C2 (stereo in doubt; 26g) | 9.6 nM
CCOC(=O)c1ccccc1C1CC2CCC(C1)N2C(=O)[C@@H](CCCc1ccccc1)NC(=O)C(C)(C)N (stereo in doubt; 26h) | 324 nM
CC(C)(N)C(=O)N[C@H](CCCc1ccccc1)C(=O)N1C2CCC1CC(c1ccccc1C(=O)O)C2 (stereo in doubt; 26i) | > 500 nM
